Data from patent US11591342B2, “Heterocyclic compound, application thereof and pharmaceutical composition comprising same” (SUZHOU SINOVENT PHARMACEUTICALS CO., LTD., priority 2018, dated 2023).

What was measured:
Autotaxin (ATX) = Autotaxin (ATX) (Homo sapiens (Human), UniProt Q13822); test: ATX bioactivity assay (Amplex Red / choline oxidase / HRP fluorescence, LPC 16:0 substrate); type: biochemical; settings: 30 min room temperature
Procedure: Effect Example 1 Bioactivity Assay
Preparation and Treatment
Stock Solution Preparation
A 10 mM DMSO stock solution was formulated for each compound. A 30 mM DMSO stock solution was formulated for positive control HA130.
The DMSO stock solutions were stored at room temperature in a desiccator for a short period of time or at −20° C. for a long period of time.
All compounds were serially 3-fold diluted in DMSO from 10 μM to the 10th concentration.
A 1000× positive control (10 mM, HA130) and a 1000× negative control (100% DMSO) were prepared.
The plates were shaken for 5 min.
Preparation of 1× Reaction Buffer:
5× reaction buffer and cold water were mixed well in a volume ratio of 1:4.
Preparation of 20 U/mL Choline Oxidase Stock Solution:
1 tube of choline oxide in a kit was dissolved in 1× reaction buffer. The aliquots were frozen at −20° C.
Preparation of 200 U/mL Horseradish Peroxidase (HRP) Stock Solution:
1 tube of HRP in a kit was dissolved in 1 mL of 1× reaction buffer. The aliquots were frozen at −20° C.
Preparation of 20 mM Amplex® Red Reagent (for Detection) Stock Solution
Amplex Red reagent and DMSO were equilibrated at room temperature. 1 tube of Amplex Red reagent in a kit was dissolved in 200 μL of DMSO.
a) 2×ATX ([…]), 2×HRP ([…]), 2× choline oxidase (0.2 U/mL) were added to 1× reaction buffer.
b) 20 μL of the reaction mixture was added to the plate (PE, 6007270) (refer to step a).
c) 40 nL of diluent was added to the plate using Echo (refer to “Preparation”).
d) 2×LPC (16:0) (60 mM) and 2× Amplex® Red ([…]) were prepared using 1× reaction buffer.
e) 20 μL of the mixture was added to the plate (refer to step d).
f) The plate was shaken for 30 s and allowed to stand at room temperature for 30 min.
g) The plate was examined using Envision, and the procedure was as follows: Excitation at 530 nm; and Emission at 590 nm.
Formula for Calculating % Inhibition (Percent Inhibition Rate) as Follows:
FLU: Fluorescence (fluorescence reading)
FLUpositive: Average fluorescence value in positive control wells (10 μM HA130) in the plate.
FLUvehicle: Average fluorescence value in negative control wells (0.1% DMSO) in the plate.
Calculation of IC50 and Dose-Response Curve:
IC50 of the compounds was calculated via a non-linear regression line (dose-variable slope) fitted using % inhibition and log of compound concentration. The software used was Graphpad 5.0. Y=Bottom+(Top−Bottom)/(1+10^((Log IC50−X)×Hill Slope))
X: log of inhibitor concentration

LPA18:2 in mouse plasma = test: Inhibition of LPA in mouse plasma (plasma LPA18:2 assay, LC-MS/MS); type: biochemical, CD1 mice; settings: fresh CD1 mouse plasma, LPA18:2, 37° C. for 120 min
Procedure: Effect Example 2. Inhibition of LPA in Mouse Plasma by Compounds
20 mM stock solutions of the compounds were prepared with DMSO and then diluted to 1 mM, which was subjected to a serial 3-fold dilution to yield 10 working solutions.
Collection of Fresh Mouse Plasma:
CD1 mice were euthanized by CO2 inhalation. Approximately 1 mL of whole blood was taken by cardiac puncture, with EDTA-K2 for anticoagulation. The blood was centrifuged at 3220 g for 10 min at 4° C. for plasma collection.
Reactions were performed in a 96-well plate, and the samples were tested in duplicate. 1 μL of each working solution was added to 100 μL of plasma, with the final concentrations of […]. 1 μL of DMSO was added to plasma to serve as blank. The samples were incubated in a water bath at 37° C. for 120 min, and 600 μL of 10 μM tolbutamide in methanol was added to terminate the reaction. Tolbutamide also served as an internal standard. After 5 min of vortex mixing, the samples were centrifuged at 3220 g for 45 min at 4° C. to precipitate the protein. 100 μL of the supernatant was transferred to a new plate, diluted with water based on LC-MS response and peak shapes, mixed well and analyzed by LC-MS/MS.
LPA18:2 was quantified using peak area ratio (LPA18:2/internal standard), requiring no standard curve. For test compounds of different concentrations, LPA data was represented by a percentage decrease of LPA: 100-[((LPA peak area ratio of compound)/(LPA peak area ratio of control))×100]. IC50 was calculated using Graphpad Prism 6.0 software.

CYP3A4 = CYP3A4 (Homo sapiens (Human), UniProt P08684); test: Time-dependent inhibition of CYP3A4 (TDI assay, human liver microsomes); type: in vitro ADME; settings: for CYP3A4 TDI % @ 10 μM: human liver microsomes, Midazolam substrate, 30 min with NADPH vs 0 min
Procedure: Effect Example 3. Time-Dependent Inhibition of CYP3A4
1. Preheating potassium phosphate buffer (K-buffer), pH 7.4: 100 mM potassium phosphate buffer (K-buffer) was prepared by mixing 9.5 mL of solution A with 40.5 mL of solution B, diluting to 500 mL with ultrapure water, and then adjusting to pH 7.4 with KOH or H3PO4, wherein the solution A (1M potassium dihydrogenphosphate) was prepared by dissolving 136.5 g of potassium dihydrogenphosphate in […] of ultrapure water.
2. Preparation of human liver microsome suspension (1.3 mg/mL, 1.3×, stock: 20 mg/mL): 100 μL of human liver microsome suspension (20 mg/mL) was added into […] of K-buffer.
3. Preparation of NADPH solution (4.167 mg/mL, 5 mM): 8.3 mg of NADPH was added into 2 mL of buffer.
4. Preparation of substrate solution (1.5× final): 1.5 μL of 10 mM Midazolam was added to 998.5 μL of K-buffer to yield the substrate mixture.
5. Preparation of 100× test compound, reference and blank control solutions: 3 μL of 10 mM stock solution of test compound was added to 27 μL of ACN; 3 μL of positive control stock solution was added to 27 μL of ACN; and 3 μL of DMSO was added to 27 μL of ACN to serve as blank control.
6. Primary preheating system: An NADPH-free system for 0 min incubation: 78 μL of 1.3× human liver microsome solution (step 2) was mixed with 1 μL of the 100× stock solutions of positive control, test compound, or blank control (step 5); A system containing NADPH for 30 min incubation: 78 μL of 1.3× human liver microsome solution (step 2) was mixed with 1 μL of the 100× stock solutions of positive control, test compound, or blank control (step 5).
7. Secondary preheating system: 150 μL of the substrate solution prepared in step 4 was added into a deep well plate together with the NADPH solution from step 3
8. The samples were preheated for 10 min in a 37° C. water bath.
9. Reaction procedure: (1) reaction for 0 min: 21 μL of K-buffer was added to the primary preheating system and mixed well without incubation; 20 μL of the mixture was immediately transferred into the plate of the secondary preheating system; after mixing, the secondary system was incubated in a 37° C. water bath for 15 min, and 60 μL of the reaction mixture was added into 120 μL of acetonitrile containing internal standard to terminate the reaction; and (2) reaction for 30 min: 21 μL of NADPH was added into the primary preheating system for a 30-min incubation after mixing; 20 μL of the mixture was added into the secondary preheating system prior to mixing; the mixture was incubated in a 37° C. water bath for 15 min, and 60 μL of the reaction mixture was added into 120 μL of acetonitrile containing internal standard to terminate the reaction.
10. After termination, the samples were shaken on a shaker at 600 rpm for 10 min and centrifuged at 5594 g for 15 min prior to LC-MS/MS analysis.

Sequence of CYP3A4 (P08684 whole entry): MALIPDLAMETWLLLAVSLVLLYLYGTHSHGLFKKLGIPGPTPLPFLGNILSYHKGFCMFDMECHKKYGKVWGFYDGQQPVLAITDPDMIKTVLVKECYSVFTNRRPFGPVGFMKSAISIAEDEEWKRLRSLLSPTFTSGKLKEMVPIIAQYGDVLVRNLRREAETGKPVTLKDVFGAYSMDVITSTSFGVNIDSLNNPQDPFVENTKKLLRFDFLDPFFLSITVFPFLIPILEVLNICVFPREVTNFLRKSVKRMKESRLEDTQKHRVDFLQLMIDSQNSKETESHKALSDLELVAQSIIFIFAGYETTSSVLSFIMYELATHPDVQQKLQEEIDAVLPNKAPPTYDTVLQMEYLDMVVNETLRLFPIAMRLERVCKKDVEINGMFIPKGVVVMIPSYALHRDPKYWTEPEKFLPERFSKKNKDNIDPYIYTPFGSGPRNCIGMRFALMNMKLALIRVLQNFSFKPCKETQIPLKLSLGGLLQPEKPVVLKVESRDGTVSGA

| Structure (SMILES) | IC50 (Autotaxin (ATX)) | IC50 (LPA18:2 in mouse plasma) | CYP3A4 TDI % @ 10 μM (CYP3A4) | time-dependent inhibition on CYP3A4 (conclusion) (CYP3A4; conclusion drawn from Table 3, 10 μM) |
| --- | --- | --- | --- | --- |
| CCn1nc2c(F)cc(N3CCN(CC(=O)N4CC(O)C4)CC3C(F)(F)F)cc2c1N(C)c1nc(-c2ccc(F)cc2)c(C#N)s1 (single isomer, unassigned) [Compound S-0131A, 2-((2-ethyl-7-fluoro-5-(4-(2-(3-hydroxyazetidin-1-yl)-2-oxoethyl)-2-(trifluoromethyl)piperazin-1-yl)-2H-indazol-3-yl)(methyl)amino)-4-(4-fluorophenyl)thiazole-5-carbonitrile] | 47 nM | 236 nM | – | – |
| CCn1nc2c(F)cc(N3CCN(CC(=O)N4CC(O)C4)CC3C(F)(F)F)cc2c1N(C)c1nc(-c2ccc(F)cc2)c(C#N)s1 (single isomer, unassigned) [Compound S-0131B, 2-((2-ethyl-7-fluoro-5-(4-(2-(3-hydroxyazetidin-1-yl)-2-oxoethyl)-2-(trifluoromethyl)piperazin-1-yl)-2H-indazol-3-yl) (methyl)amino)-4-(4-fluorophenyl)thiazole-5-carbonitrile] | 36 nM | 91 nM | – | – |
| CCN(c1nc(-c2ccc(F)cc2)c(C#N)s1)c1c2cc(N3CCN(CC(=O)N4CC(O)C4)CC3C(F)(F)F)cc(F)c2nn1CC (single isomer, unassigned) [Compound S-0134A, 2-(ethyl(2-ethyl-7-fluoro-5-(4-(2-(3-hydroxyazetidin-1-yl)-2-oxoethyl)-2-(trifluoromethyl)piperazin-1-yl)-2H-indazol-3-yl)amino)-4-(4-fluorophenyl)thiazole-5-carbonitrile] | 20 nM | 116 nM | – | – |
| CCN(c1nc(-c2ccc(F)cc2)c(C#N)s1)c1c2cc(N3CCN(CC(=O)N4CC(O)C4)CC3C(F)(F)F)cc(F)c2nn1CC (single isomer, unassigned) [Compound S-0134B, 2-(ethyl (2-ethyl-7-fluoro-5-(4-(2-(3-hydroxyazetidin-1-yl)-2-oxoethyl)-2-(trifluoromethyl)piperazin-1-yl)-2H-indazol-3-yl)amino)-4-(4-fluorophenyl)thiazole-5-carbonitrile] | 11 nM | 98 nM | 41.82% | weak time-dependent inhibition on CYP3A4 |
| CCc1nc2ncc(N3CCN(CC(=O)N4CC(O)C4)CC3)cn2c1N(CC)c1nc(-c2ccc(F)cc2)c(C#N)s1 [Compound S-0058, 2-(ethyl(2-ethyl-6-(4-(2-(3-hydroxyazetidin-1-yl)-2-oxoethyl)piperazin-1-yl)imidazo[1,2-a]pyrimidin-3-yl)amino)-4-(4-fluorophenyl)thiazole-5-carbonitrile] | 40 nM | 373 nM | – | – |
| CCN(c1nc(-c2ccc(F)cc2)c(C#N)s1)c1c2cc(N3CCN(CC(=O)N4CC(O)C4)[C@H](C(F)(F)F)C3)cc(F)c2nn1CC [Compound S-0135A, (S)-2-(ethyl(2-ethyl-7-fluoro-5-(4-(2-(3-hydroxyazetidin-1-yl)-2-oxoethyl)-3-(trifluoromethyl)piperazin-1-yl)-2H-indazol-3-yl)amino)-4-(4-fluorophenyl)thiazole-5-carbonitrile] | 132 nM | 442 nM | – | – |
| CCn1nc2c(C)cc(N3CCN(CC(=O)N4CC(O)C4)CC3)nc2c1N(CC(F)F)c1nc(-c2ccc(F)cc2)c(C#N)s1 [Compound S-0141, 2-((2,2-difluoroethyl)(2-ethyl-5-(4-(2-(3-hydroxyazetidin-1-yl)-2-oxoethyl)piperazin-1-yl)-7-methyl-2H-pyrazolo[4,3-b]pyridin-3-yl)amino)-4-(4-fluorophenyl)thiazole-5-carbonitrile] | 43 nM | 153 nM | – | – |
| CCn1nc2c(C)cc(N3CCN(CC(=O)N4CC(O)C4)CC3)nc2c1N(CCF)c1nc(-c2ccc(F)cc2)c(C#N)s1 [Compound S-0144, 2-((2-ethyl-5-(4-(2-(3-hydroxyazetidin-1-yl)-2-oxoethyl)piperazin-1-yl)-7-methyl-2H-pyrazolo[4,3-b]pyridin-3-yl)(2-fluoroethyl)amino)-4-(4-fluorophenyl)thiazole-5-carbonitrile] | 27 nM | 67 nM | – | – |
| CCN(c1nc(-c2ccc(F)cc2)cs1)c1c2cc(N3CCN(CC(=O)N4CC(O)C4)CC3)cc(F)c2nn1CC [Compound S-0149, 2-(4-(2-ethyl-3-(ethyl(4-(4-fluorophenyl)thiazol-2-yl)amino)-7-fluoro-2H-indazol-5-yl)piperazin-1-yl)-1-(3-hydroxyazetidin-1-yl)ethanone] | – | 160 nM | – | – |
| CCN(c1nc(-c2ccc(F)cc2)cs1)c1c2nc(N3CCN(CC(=O)N4CC(O)C4)CC3)cc(C)c2nn1CC [Compound S-0151, 2-(4-(2-ethyl-3-(ethyl(4-(4-fluorophenyl)thiazol-2-yl)amino)-7-methyl-2H-pyrazolo[4,3-b]pyridin-5-yl)piperazin-1-yl)-1-(3-hydroxyazetidin-1-yl) ethanone] | – | 1400 nM | – | – |
| CCc1nc2c(C)cc(N3CCN(CC(=O)N4CC(O)C4)CC3)cn2c1N(C)c1nc(-c2ccc(F)cc2)c(C#N)s1 [GLPG1690, reference compound] | – | 1060 nM | 21.57% | – |
